What was measured:
Assay in all cases: biochemical
Type in all cases: biochemical
[1] = target: T1, 382 unique human kinases (Homo sapiens, UniProt P29322); details: kinase EPHA8, compound 10 uM; for remaining activity at 10 µM: read-out: % Enzyme Activity (relative to DMSO controls)
T1 construct: purchased Reaction Biology (HotSpot contract assay)
T1 sequence (P29322 28-1005): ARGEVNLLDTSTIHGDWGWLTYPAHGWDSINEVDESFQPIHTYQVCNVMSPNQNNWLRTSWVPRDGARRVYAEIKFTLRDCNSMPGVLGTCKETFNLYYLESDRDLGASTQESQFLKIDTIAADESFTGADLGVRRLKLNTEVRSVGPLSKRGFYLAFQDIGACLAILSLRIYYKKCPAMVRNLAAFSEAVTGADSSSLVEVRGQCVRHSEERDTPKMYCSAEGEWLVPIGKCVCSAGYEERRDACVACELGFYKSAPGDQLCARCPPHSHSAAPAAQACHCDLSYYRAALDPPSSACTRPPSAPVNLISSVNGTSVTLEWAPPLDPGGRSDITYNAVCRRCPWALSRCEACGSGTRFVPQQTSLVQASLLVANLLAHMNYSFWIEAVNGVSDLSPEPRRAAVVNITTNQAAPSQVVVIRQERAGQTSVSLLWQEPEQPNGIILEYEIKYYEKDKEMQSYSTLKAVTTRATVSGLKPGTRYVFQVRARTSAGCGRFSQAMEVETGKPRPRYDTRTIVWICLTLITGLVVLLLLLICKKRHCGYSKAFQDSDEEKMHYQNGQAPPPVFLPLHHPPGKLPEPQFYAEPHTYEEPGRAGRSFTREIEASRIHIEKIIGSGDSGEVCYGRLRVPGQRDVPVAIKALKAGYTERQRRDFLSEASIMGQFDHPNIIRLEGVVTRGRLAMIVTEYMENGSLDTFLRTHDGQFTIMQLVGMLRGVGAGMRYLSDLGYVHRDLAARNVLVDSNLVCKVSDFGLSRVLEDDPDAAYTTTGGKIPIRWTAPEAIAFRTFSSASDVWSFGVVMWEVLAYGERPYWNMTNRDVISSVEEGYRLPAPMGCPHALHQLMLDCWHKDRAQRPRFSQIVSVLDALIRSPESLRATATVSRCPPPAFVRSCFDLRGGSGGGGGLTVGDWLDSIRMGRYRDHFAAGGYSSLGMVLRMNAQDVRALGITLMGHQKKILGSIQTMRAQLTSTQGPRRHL

[2] = target: T2, 382 unique human kinases (Homo sapiens, UniProt Q9BQI3); details: EIF2AK1, compound at 10 uM, duplicate values; for remaining activity at 10 µM: read-out: % Enzyme Activity (relative to DMSO controls)
T2 construct: purchased Reaction Biology (HotSpot contract assay)
T2 sequence (Q9BQI3 whole entry): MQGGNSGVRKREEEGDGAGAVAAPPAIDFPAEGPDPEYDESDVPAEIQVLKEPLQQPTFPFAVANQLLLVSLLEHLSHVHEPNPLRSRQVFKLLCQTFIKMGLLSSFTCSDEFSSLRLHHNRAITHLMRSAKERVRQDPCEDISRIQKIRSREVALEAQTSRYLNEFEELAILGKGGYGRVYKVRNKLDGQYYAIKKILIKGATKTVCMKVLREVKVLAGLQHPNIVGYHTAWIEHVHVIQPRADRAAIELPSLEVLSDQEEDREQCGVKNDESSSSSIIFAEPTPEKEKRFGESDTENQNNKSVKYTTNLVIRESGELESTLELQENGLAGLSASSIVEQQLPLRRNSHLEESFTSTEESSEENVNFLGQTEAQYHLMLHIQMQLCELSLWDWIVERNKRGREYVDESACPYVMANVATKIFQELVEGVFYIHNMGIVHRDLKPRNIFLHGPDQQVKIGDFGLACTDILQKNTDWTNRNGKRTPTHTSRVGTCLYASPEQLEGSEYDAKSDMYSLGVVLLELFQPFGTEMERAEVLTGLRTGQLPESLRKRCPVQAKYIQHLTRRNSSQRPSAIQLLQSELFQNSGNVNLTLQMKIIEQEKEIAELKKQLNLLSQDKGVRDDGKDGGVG

[3] = target: T3, 382 unique human kinases (Homo sapiens, UniProt P10721, V654A); details: kinase c-Kit (V654A), compound 10 uM; for remaining activity at 10 µM: read-out: % Enzyme Activity (relative to DMSO controls)
T3 construct: purchased Reaction Biology (HotSpot contract assay)
T3 sequence (P10721 26-976 V654A): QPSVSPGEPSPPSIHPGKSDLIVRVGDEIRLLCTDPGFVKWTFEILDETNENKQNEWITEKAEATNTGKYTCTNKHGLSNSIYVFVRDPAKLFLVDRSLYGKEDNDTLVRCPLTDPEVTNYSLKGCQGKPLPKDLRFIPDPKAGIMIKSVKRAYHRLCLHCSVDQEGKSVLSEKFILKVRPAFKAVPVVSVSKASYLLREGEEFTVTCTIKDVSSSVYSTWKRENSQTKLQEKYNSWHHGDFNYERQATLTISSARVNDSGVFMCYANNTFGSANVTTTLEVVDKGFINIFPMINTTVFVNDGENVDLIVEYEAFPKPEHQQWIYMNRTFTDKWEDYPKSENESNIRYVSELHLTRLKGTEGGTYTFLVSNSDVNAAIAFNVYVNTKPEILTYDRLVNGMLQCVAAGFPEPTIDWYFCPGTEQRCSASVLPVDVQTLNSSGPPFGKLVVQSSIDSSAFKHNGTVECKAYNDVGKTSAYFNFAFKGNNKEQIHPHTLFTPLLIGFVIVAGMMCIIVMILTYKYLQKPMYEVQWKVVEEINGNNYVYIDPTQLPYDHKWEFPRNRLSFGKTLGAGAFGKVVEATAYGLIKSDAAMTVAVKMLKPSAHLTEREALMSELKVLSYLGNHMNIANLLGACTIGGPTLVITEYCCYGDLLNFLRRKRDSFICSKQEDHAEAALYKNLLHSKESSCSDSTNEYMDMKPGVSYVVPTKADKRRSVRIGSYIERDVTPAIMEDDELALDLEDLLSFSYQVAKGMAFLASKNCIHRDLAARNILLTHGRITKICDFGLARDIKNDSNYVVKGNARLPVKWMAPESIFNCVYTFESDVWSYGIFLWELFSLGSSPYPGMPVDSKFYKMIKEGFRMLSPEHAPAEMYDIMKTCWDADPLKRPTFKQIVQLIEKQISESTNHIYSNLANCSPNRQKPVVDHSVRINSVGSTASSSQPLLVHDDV

[4] = target: T4, 382 unique human kinases (Homo sapiens, UniProt O43318); details: kinase TAK1, compound 10 uM; for remaining activity at 10 µM: read-out: % Enzyme Activity (relative to DMSO controls)
T4 construct: purchased Reaction Biology (HotSpot contract assay)
T4 sequence (O43318 1-606): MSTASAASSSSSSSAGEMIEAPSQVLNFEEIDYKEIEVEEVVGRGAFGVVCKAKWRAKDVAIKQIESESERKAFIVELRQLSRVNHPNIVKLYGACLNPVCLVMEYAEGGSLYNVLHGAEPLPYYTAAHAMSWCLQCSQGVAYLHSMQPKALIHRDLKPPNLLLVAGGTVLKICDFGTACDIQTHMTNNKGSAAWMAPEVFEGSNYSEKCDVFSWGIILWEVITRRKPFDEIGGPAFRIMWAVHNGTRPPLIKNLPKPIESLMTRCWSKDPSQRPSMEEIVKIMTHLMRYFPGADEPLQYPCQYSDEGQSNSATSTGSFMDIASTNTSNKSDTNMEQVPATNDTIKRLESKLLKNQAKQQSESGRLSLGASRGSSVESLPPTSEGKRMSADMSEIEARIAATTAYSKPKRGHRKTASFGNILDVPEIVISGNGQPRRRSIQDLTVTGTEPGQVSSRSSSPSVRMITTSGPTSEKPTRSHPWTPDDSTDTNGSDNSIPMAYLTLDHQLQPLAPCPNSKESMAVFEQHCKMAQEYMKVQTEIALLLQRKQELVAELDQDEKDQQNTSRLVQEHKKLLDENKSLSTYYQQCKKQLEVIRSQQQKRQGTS

[5] = target: T5, 382 unique human kinases (Homo sapiens, UniProt Q02763, Y897S); details: TIE2 (Y897S), 10 uM; for remaining activity at 10 µM: read-out: % Enzyme Activity (relative to DMSO controls)
T5 construct: purchased Reaction Biology (HotSpot contract assay)
T5 sequence (Q02763 23-1124 Y897S): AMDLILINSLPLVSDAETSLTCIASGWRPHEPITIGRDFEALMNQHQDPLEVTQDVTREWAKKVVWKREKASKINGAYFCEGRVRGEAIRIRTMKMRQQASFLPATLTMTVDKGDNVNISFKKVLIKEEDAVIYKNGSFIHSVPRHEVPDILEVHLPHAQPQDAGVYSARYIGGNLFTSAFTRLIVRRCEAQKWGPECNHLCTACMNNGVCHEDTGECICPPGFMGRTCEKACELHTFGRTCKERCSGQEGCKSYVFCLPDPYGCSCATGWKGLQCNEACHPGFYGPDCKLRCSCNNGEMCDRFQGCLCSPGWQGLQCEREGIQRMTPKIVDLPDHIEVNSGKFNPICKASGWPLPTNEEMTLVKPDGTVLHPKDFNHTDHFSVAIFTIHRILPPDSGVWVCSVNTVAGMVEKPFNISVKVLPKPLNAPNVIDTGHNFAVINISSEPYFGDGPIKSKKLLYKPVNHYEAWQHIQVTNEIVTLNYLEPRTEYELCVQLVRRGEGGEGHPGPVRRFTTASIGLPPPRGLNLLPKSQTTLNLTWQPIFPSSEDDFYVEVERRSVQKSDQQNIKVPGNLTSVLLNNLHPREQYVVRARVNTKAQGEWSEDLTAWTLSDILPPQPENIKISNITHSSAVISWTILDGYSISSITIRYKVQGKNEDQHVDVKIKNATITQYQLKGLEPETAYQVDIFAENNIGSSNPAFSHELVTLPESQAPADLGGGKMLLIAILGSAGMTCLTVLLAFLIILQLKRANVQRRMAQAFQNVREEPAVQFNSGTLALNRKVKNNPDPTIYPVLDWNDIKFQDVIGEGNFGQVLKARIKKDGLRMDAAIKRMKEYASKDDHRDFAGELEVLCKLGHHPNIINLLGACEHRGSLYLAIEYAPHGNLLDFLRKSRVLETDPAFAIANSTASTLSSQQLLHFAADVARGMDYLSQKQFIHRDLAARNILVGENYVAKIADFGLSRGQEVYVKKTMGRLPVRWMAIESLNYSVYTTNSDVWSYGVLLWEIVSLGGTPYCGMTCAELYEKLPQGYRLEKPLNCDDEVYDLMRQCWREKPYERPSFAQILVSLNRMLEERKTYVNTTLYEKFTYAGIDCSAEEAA

[6] = target: T6, 382 unique human kinases (Homo sapiens, UniProt P36896); details: ALK4/ACVR1B, 10 uM; for remaining activity at 10 µM: read-out: % Enzyme Activity (relative to DMSO controls)
T6 construct: purchased Reaction Biology (HotSpot contract assay)
T6 sequence (P36896 24-505): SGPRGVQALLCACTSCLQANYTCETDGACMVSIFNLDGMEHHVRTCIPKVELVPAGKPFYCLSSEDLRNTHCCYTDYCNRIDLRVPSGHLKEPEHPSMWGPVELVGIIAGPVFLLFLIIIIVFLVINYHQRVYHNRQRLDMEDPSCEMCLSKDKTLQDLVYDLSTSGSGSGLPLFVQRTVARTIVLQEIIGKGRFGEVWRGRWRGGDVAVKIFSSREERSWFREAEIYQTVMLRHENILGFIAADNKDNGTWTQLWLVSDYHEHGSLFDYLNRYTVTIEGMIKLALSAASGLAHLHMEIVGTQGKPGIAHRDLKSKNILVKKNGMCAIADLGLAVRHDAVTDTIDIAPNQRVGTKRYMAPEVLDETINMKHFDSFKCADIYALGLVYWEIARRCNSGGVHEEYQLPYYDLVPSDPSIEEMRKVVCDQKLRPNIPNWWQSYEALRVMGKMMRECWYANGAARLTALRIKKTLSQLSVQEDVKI

Row | Compound | remaining activity at 10 µM [1] | remaining activity at 10 µM [2] | remaining activity at 10 µM [3] | remaining activity at 10 µM [4] | remaining activity at 10 µM [5] | remaining activity at 10 µM [6] | % Enzyme Activity (relative to DMSO controls) [1] | % Enzyme Activity (relative to DMSO controls) [2] | % Enzyme Activity (relative to DMSO controls) [3] | % Enzyme Activity (relative to DMSO controls) [4] | % Enzyme Activity (relative to DMSO controls) [5] | % Enzyme Activity (relative to DMSO controls) [6]
1 | CC(C)c1cc(-c2n[nH]c(=O)n2-c2ccc3c(ccn3C)c2)c(O)cc1O [Ganetespib (STA9090)] | 95.2% | 110% | 81.4% | 85.8% |  |  |  |  |  |  |  | 
2 | CC(C)c1cc(-c2n[nH]c(=O)n2-c2ccc3c(ccn3C)c2)c(O)cc1O [Ganetespib] |  |  |  |  | 98.7% | 111% |  |  |  |  |  | 
3 | CCNC(=O)c1noc(-c2cc(C(C)C)c(O)cc2O)c1-c1ccc(CN2CCOCC2)cc1 [Luminespib (AUY-922)] | 94.1% | 127% | 85.8% | 96.7% |  |  | 92.42% | 122.69% | 85.21% | 96.28% |  | 
4 | CCNC(=O)c1noc(-c2cc(C(C)C)c(O)cc2O)c1-c1ccc(CN2CCOCC2)cc1 [Luminespib] |  |  |  |  | 117% | 95% |  |  |  |  | 116.81% | 94.12%

Source: PMC8550792, “Evolution of kinase polypharmacology across HSP90 drug discovery” (Cell Chemical Biology, 2021)
